Measured values: patent US9108960B2 (priority 2011, dated 2015)
Values after ≈ are worked out from the molar mass of the structure shown.

Assays:
M. tuberculosis H37Rv [1] = assay: Antimycobacterial assay, MIC by broth microdilution / Nitrate Reductase Assay; type: cell-based; details: Mycobacterium tuberculosis, exposure period 3-4 days
M. tuberculosis Rif^R = assay: as above; type: cell-based; details: Mycobacterium tuberculosis, read-out: MIC M. tuberculosis Rif^R
M. tuberculosis XDR-1 = assay: as above; type: cell-based; details: Mycobacterium tuberculosis, XDR1, read-out: MIC M. tuberculosis XDR-1
M. tuberculosis H37Rv [2] = details: literature values (footnote *); cited from earlier work

For O=C(Nc1ccc(N2CCC(c3n[nH]c(=O)o3)CC2)cc1)c1ccc([N+](=O)[O-])o1 [Compound 8a, N2-4-[4-(5-Oxo-4,5-dihydro-1,3,4-oxadiazol-2-yl)piperidino]phenyl-5-nitro-2-furamide], the MIC (M. tuberculosis H37Rv [1]) was 1 µg/mL (≈ 2.5 µM), the MIC (M. tuberculosis Rif^R) was 1 µg/mL (≈ 2.5 µM) and the MIC (M. tuberculosis XDR-1) was 4 µg/mL (≈ 10 µM).
With CCn1nc(C2CCN(c3ccc(NC(=O)c4ccc([N+](=O)[O-])o4)cc3)CC2)oc1=O [Compound 8c, N2-4-[4-(4-Ethyl-5-oxo-4,5-dihydro-1,3,4-oxadiazol-2-yl)piperidino]phenyl-5-nitro-2-furamide] the MIC (M. tuberculosis H37Rv [1]) was 1 µg/mL (≈ 2.34 µM), the MIC (M. tuberculosis Rif^R) was 2 µg/mL (≈ 4.68 µM) and the MIC (M. tuberculosis XDR-1) was 4 µg/mL (≈ 9.36 µM).
Work on O=C(Nc1ccc(N2CCC(c3n[nH]c(=O)o3)CC2)c(F)c1)c1ccc([N+](=O)[O-])o1 [Compound 8e, N2-3-Fluoro-4-[4-(5-oxo-4,5-dihydro-1,3,4-oxadiazol-2-yl)piperidino]phenyl-5-nitro-2-furamide] yielded an MIC (M. tuberculosis H37Rv [1]) of 2 µg/mL (≈ 4.79 µM), an MIC (M. tuberculosis Rif^R) of 2 µg/mL (≈ 4.79 µM) and an MIC (M. tuberculosis XDR-1) of 8 µg/mL (≈ 19.2 µM).
Compound Cn1nc(C2CCN(c3ccc(NC(=O)c4ccc([N+](=O)[O-])o4)cc3F)CC2)oc1=O [Compound 8f, N2-3-Fluoro-4-[4-(4-methyl-5-oxo-4,5-dihydro-1,3,4-oxadiazol-2-yl)piperidino]phenyl-5-nitro-2-furamide] has an MIC (M. tuberculosis H37Rv [1]) of 1 µg/mL (≈ 2.32 µM), an MIC (M. tuberculosis Rif^R) of 2 µg/mL (≈ 4.64 µM) and an MIC (M. tuberculosis XDR-1) of 4 µg/mL (≈ 9.27 µM).
Compound CCn1nc(C2CCN(c3ccc(NC(=O)c4ccc([N+](=O)[O-])o4)cc3F)CC2)oc1=O [Compound 8g, N2-4-[4-(4-Ethyl-5-oxo-4,5-dihydro-1,3,4-oxadiazol-2-yl)piperidino]-3-fluorophenyl-5-nitro-2-furamide] has an MIC (M. tuberculosis H37Rv [1]) of 0.5 µg/mL (≈ 1.12 µM), an MIC (M. tuberculosis Rif^R) of 1 µg/mL (≈ 2.25 µM) and an MIC (M. tuberculosis XDR-1) of 2 µg/mL (≈ 4.49 µM).
With O=c1[nH]nc(C2CCN(c3ccc(/N=C/c4ccc([N+](=O)[O-])o4)cc3)CC2)o1 [Compound 9a, 5-[1-(4-[(E)-1-(5-Nitro-2-furyl)methylidene]aminophenyl)-4-piperidyl]-2,3-dihydro-1,3,4-oxadiazol-2-one] the MIC (M. tuberculosis H37Rv [1]) was 2 µg/mL (≈ 5.22 µM), the MIC (M. tuberculosis Rif^R) was 4 µg/mL (≈ 10.4 µM) and the MIC (M. tuberculosis XDR-1) was 4 µg/mL (≈ 10.4 µM).
Compound Cn1nc(C2CCN(c3ccc(/N=C/c4ccc([N+](=O)[O-])o4)cc3)CC2)oc1=O [Compound 9b, 3-Methyl-5-[1-(4-[(E)-1-(5-nitro-2-furyl)methylidene]aminophenyl)-4-piperidyl]-2,3-dihydro-1,3,4-oxadiazol-2-one] has an MIC (M. tuberculosis H37Rv [1]) of 2 µg/mL (≈ 5.03 µM), an MIC (M. tuberculosis Rif^R) of 4 µg/mL (≈ 10.1 µM) and an MIC (M. tuberculosis XDR-1) of 8 µg/mL (≈ 20.1 µM).
For CCn1nc(C2CCN(c3ccc(/N=C/c4ccc([N+](=O)[O-])o4)cc3)CC2)oc1=O [Compound 9c, 3-Ethyl-5-[1-(4-[(E)-1-(5-nitro-2-furyl)methylidene]aminophenyl)-4-piperidyl]-2,3-dihydro-1,3,4-oxadiazol-2-one], the MIC (M. tuberculosis H37Rv [1]) was 1 µg/mL (≈ 2.43 µM), the MIC (M. tuberculosis Rif^R) was 2 µg/mL (≈ 4.86 µM) and the MIC (M. tuberculosis XDR-1) was 4 µg/mL (≈ 9.72 µM).
In the case of O=c1oc(C2CCN(c3ccc(/N=C/c4ccc([N+](=O)[O-])o4)cc3)CC2)nn1Cc1ccccc1 [Compound 9d, 3-Benzyl-5-[1-(4-[(E)-1-(5-nitro-2-furyl)methylidene]aminophenyl)-4-piperidyl]-2,3-dihydro-1,3,4-oxadiazol-2-one], the MIC (M. tuberculosis H37Rv [1]) is reported as 2 µg/mL (≈ 4.22 µM), the MIC (M. tuberculosis Rif^R) is reported as 4 µg/mL (≈ 8.45 µM) and the MIC (M. tuberculosis XDR-1) is reported as 8 µg/mL (≈ 16.9 µM).
O=c1[nH]nc(C2CCN(c3ccc(/N=C/c4ccc([N+](=O)[O-])o4)cc3F)CC2)o1 [Compound 9e, 5-[1-(2-Fluoro-4-[(E)-1-(5-nitro-2-furyl)methylidene]aminophenyl)-4-piperidyl]-2,3-dihydro-1,3,4-oxadiazol-2-one] showed an MIC (M. tuberculosis H37Rv [1]) of 2 µg/mL (≈ 4.98 µM), an MIC (M. tuberculosis Rif^R) of 2 µg/mL (≈ 4.98 µM) and an MIC (M. tuberculosis XDR-1) of 8 µg/mL (≈ 19.9 µM).
Compound Cn1nc(C2CCN(c3ccc(/N=C/c4ccc([N+](=O)[O-])o4)cc3F)CC2)oc1=O [Compound 9f, 5-[1-(2-Fluoro-4-[(E)-1-(5-nitro-2-furyl)methylidene]aminophenyl)-4-piperidyl]-3-methyl-2,3-dihydro-1,3,4-oxadiazol-2-one] has an MIC (M. tuberculosis H37Rv [1]) of 2 µg/mL (≈ 4.81 µM), an MIC (M. tuberculosis Rif^R) of 4 µg/mL (≈ 9.63 µM) and an MIC (M. tuberculosis XDR-1) of 8 µg/mL (≈ 19.3 µM).
CCn1nc(C2CCN(c3ccc(/N=C/c4ccc([N+](=O)[O-])o4)cc3F)CC2)oc1=O [Compound 9g, 3-Ethyl-5-[1-(2-fluoro-4-[(E)-1-(5-nitro-2-furyl)methylidene]aminophenyl)-4-piperidyl]-2,3-dihydro-1,3,4-oxadiazol-2-one] gave an MIC (M. tuberculosis H37Rv [1]) of 1 µg/mL (≈ 2.33 µM), an MIC (M. tuberculosis Rif^R) of 2 µg/mL (≈ 4.66 µM) and an MIC (M. tuberculosis XDR-1) of 4 µg/mL (≈ 9.32 µM).
With O=c1oc(C2CCN(c3ccc(/N=C/c4ccc([N+](=O)[O-])o4)cc3F)CC2)nn1Cc1ccccc1 [Compound 9h, 3-Benzyl-5-[1-(2-fluoro-4-[(E)-1-(5-nitro-2-furyl)methylidene]aminophenyl)-4-piperidyl]-2,3-dihydro-1,3,4-oxadiazol-2-one] the MIC (M. tuberculosis H37Rv [1]) was 2 µg/mL (≈ 4.07 µM), the MIC (M. tuberculosis Rif^R) was 2 µg/mL (≈ 4.07 µM) and the MIC (M. tuberculosis XDR-1) was 8 µg/mL (≈ 16.3 µM).
Work on O=c1[nH]nc(C2CCN(c3ccc(NCc4ccc([N+](=O)[O-])o4)cc3)CC2)o1 [Compound 10a, 5-[1-(4-[(5-Nitro-2-furyl)methyl]aminophenyl)-4-piperidyl]-2,3-dihydro-1,3,4-oxadiazol-2-one] yielded an MIC (M. tuberculosis H37Rv [1]) of 1 µg/mL (≈ 2.59 µM), an MIC (M. tuberculosis Rif^R) of 4 µg/mL (≈ 10.4 µM) and an MIC (M. tuberculosis XDR-1) of 4 µg/mL (≈ 10.4 µM).
In the case of Cn1nc(C2CCN(c3ccc(NCc4ccc([N+](=O)[O-])o4)cc3)CC2)oc1=O [Compound 10b, 3-Methyl-5-[1-(4-[(5-nitro-2-furyl)methyl]aminophenyl)-4-piperidyl]-2,3-dihydro-1,3,4-oxadiazol-2-one], the MIC (M. tuberculosis H37Rv [1]) is reported as 2 µg/mL (≈ 5.01 µM), the MIC (M. tuberculosis Rif^R) is reported as 4 µg/mL (≈ 10 µM) and the MIC (M. tuberculosis XDR-1) is reported as 8 µg/mL (≈ 20 µM).
CCn1nc(C2CCN(c3ccc(NCc4ccc([N+](=O)[O-])o4)cc3)CC2)oc1=O [Compound 10c, 3-Ethyl-5-[1-(4-[(5-nitro-2-furyl)methyl]aminophenyl)-4-piperidyl]-2,3-dihydro-1,3,4-oxadiazol-2-one] showed an MIC (M. tuberculosis H37Rv [1]) of 1 µg/mL (≈ 2.42 µM), an MIC (M. tuberculosis Rif^R) of 1 µg/mL (≈ 2.42 µM) and an MIC (M. tuberculosis XDR-1) of 4 µg/mL (≈ 9.68 µM).
In the case of O=c1oc(C2CCN(c3ccc(NCc4ccc([N+](=O)[O-])o4)cc3)CC2)nn1Cc1ccccc1 [Compound 10d, 3-Benzyl-5-[1-(4-[(5-nitro-2-furyl)methyl]aminophenyl)-4-piperidyl]-2,3-dihydro-1,3,4-oxadiazol-2-one], the MIC (M. tuberculosis H37Rv [1]) is reported as 2 µg/mL (≈ 4.21 µM), the MIC (M. tuberculosis Rif^R) is reported as 2 µg/mL (≈ 4.21 µM) and the MIC (M. tuberculosis XDR-1) is reported as 8 µg/mL (≈ 16.8 µM).
With O=c1[nH]nc(C2CCN(c3ccc(NCc4ccc([N+](=O)[O-])o4)cc3F)CC2)o1 [Compound 10e, 5-[1-(2-Fluoro-4-[(5-nitro-2-furyl)methyl]aminophenyl)-4-piperidyl]-2,3-dihydro-1,3,4-oxadiazol-2-one] the MIC (M. tuberculosis H37Rv [1]) was 2 µg/mL (≈ 4.96 µM), the MIC (M. tuberculosis Rif^R) was 2 µg/mL (≈ 4.96 µM) and the MIC (M. tuberculosis XDR-1) was 8 µg/mL (≈ 19.8 µM).
Cn1nc(C2CCN(c3ccc(NCc4ccc([N+](=O)[O-])o4)cc3F)CC2)oc1=O [Compound 10f, 5-[1-(2-Fluoro-4-[(5-nitro-2-furyl)methyl]aminophenyl)-4-piperidyl]-3-methyl-2,3-dihydro-1,3,4-oxadiazol-2-one] gave an MIC (M. tuberculosis H37Rv [1]) of 4 µg/mL (≈ 9.58 µM), an MIC (M. tuberculosis Rif^R) of 8 µg/mL (≈ 19.2 µM) and an MIC (M. tuberculosis XDR-1) of 16 µg/mL (≈ 38.3 µM).
For CCn1nc(C2CCN(c3ccc(NCc4ccc([N+](=O)[O-])o4)cc3F)CC2)oc1=O [Compound 10g, 3-Ethyl-5-[1-(2-fluoro-4-[(5-nitro-2-furyl)methyl]aminophenyl)-4-piperidyl]-2,3-dihydro-1,3,4-oxadiazol-2-one], the MIC (M. tuberculosis H37Rv [1]) was 2 µg/mL (≈ 4.64 µM), the MIC (M. tuberculosis Rif^R) was 4 µg/mL (≈ 9.27 µM) and the MIC (M. tuberculosis XDR-1) was 4 µg/mL (≈ 9.27 µM).
Work on O=c1oc(C2CCN(c3ccc(NCc4ccc([N+](=O)[O-])o4)cc3F)CC2)nn1Cc1ccccc1 [Compound 10h, 3-Benzyl-5-[1-(2-fluoro-4-[(5-nitro-2-furyl)methyl]aminophenyl)-4-piperidyl]-2,3-dihydro-1,3,4-oxadiazol-2-one] yielded an MIC (M. tuberculosis H37Rv [1]) of 2 µg/mL (≈ 4.05 µM), an MIC (M. tuberculosis Rif^R) of 4 µg/mL (≈ 8.11 µM) and an MIC (M. tuberculosis XDR-1) of 8 µg/mL (≈ 16.2 µM).
In the case of O=C(Nc1cccc(F)c1)c1ccc([N+](=O)[O-])o1 [Compound 11a, N2-(3-fluorophenyl)-5-nitro-2-furamide], the “MIC M. tuberculosis H37Rv” value (M. tuberculosis H37Rv [2]) is given as 0.12 µg/mL (≈ 0.48 µM).
For O=C(Nc1ccncc1)c1ccc([N+](=O)[O-])o1 [Compound 11b, N2-(4-pyridyl)-5-nitro-2-furamide], the “MIC M. tuberculosis H37Rv” value (M. tuberculosis H37Rv [2]) is listed as 0.8 µg/mL (≈ 3.43 µM).
In the case of O=C(Nc1ccc(N2CCC(Cc3ccccc3)CC2)cc1)c1ccc([N+](=O)[O-])o1 [Compound 11c, N2-[4-(4-benzylpiperidino)phenyl]-5-nitro-2-furamide], the “MIC M. tuberculosis H37Rv” value (M. tuberculosis H37Rv [2]) is given as 3.12 µg/mL (≈ 7.7 µM).
For CC1CCCN(Cn2nc(-c3ccncc3)oc2=O)C1 (stereo not shown) [Compound 12a, 3-[(3-methylpiperidino)methyl]-5-(4-pyridyl)-2,3-dihydro-1,3,4-oxadiazol-2-one], the “MIC M. tuberculosis H37Rv” value (M. tuberculosis H37Rv [2]) is listed as 3.13 µg/mL (≈ 11.4 µM).
For CN1CCN(Cn2nc(-c3ccncc3)oc2=O)CC1 [Compound 12b, 3-[(4-methylpiperazino)methyl]-5-(4-pyridyl)-2,3-dihydro-1,3,4-oxadiazol-2-one], the “MIC M. tuberculosis H37Rv” value (M. tuberculosis H37Rv [2]) is given as 1.25 µg/mL (≈ 4.54 µM).
For O=c1oc(-c2ccncc2)nn1CN1CCC(Cc2ccccc2)CC1 [Compound 12c, 3-[(4-benzylpiperidino)methyl]-5-(4-pyridyl)-2,3-dihydro-1,3,4-oxadiazol-2-one], the “MIC M. tuberculosis H37Rv” value (M. tuberculosis H37Rv [2]) is listed as 2.5 µg/mL (≈ 7.13 µM).
Compound NNC(=O)c1ccncc1 [Isoniazid, reference compound] has an MIC (M. tuberculosis H37Rv [1]) of 2.5 µg/mL (≈ 18.2 µM).
In the case of CO[C@H]1/C=C/O[C@@]2(C)Oc3c(C)c(O)c4c(O)c(c(/C=N/N5CCN(C)CC5)c(O)c4c3C2=O)NC(=O)/C(C)=C\C=C\[C@H](C)[C@H](O)[C@@H](C)[C@@H](O)[C@@H](C)[C@H](OC(C)=O)[C@@H]1C [Rifampicin, reference compound], the MIC (M. tuberculosis H37Rv [1]) is reported as 0.5 µg/mL (≈ 0.608 µM), the MIC (M. tuberculosis Rif^R) is reported as > 128 µg/mL and the MIC (M. tuberculosis XDR-1) is reported as 2 µg/mL (≈ 2.43 µM).
